Each compound was assayed against T1, human OX2R (Homo sapiens, UniProt O43614) (assay: IPOne (IP-1) orexin receptor agonist assay in CHO cells expressing human OX2R). Conditions: CHO, percent of mean max effect of a reference compound at 1 uM with 100% activity vs Orexin A, human OX2R.
T1 construct: expressed in transfected cells; host or cells: CHO (Chinese hamster ovary) cells, grown under G418 selection
T1 sequence (O43614 1-444): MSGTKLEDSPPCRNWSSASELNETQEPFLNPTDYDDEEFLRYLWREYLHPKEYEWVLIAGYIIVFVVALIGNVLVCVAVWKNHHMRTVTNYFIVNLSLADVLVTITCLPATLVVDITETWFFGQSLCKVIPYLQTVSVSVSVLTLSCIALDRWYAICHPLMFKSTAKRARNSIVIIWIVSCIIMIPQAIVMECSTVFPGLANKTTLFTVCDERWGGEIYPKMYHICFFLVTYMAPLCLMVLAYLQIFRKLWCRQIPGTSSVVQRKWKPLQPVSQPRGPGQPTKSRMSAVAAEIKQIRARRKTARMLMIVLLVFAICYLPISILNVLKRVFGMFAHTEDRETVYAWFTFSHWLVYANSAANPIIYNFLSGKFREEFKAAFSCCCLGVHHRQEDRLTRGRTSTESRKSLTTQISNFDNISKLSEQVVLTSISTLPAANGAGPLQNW
Type: cell-based
Outline: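 CHO cells with human OX2R treated 2 h at 37 °C with 10-point ½-log compound dilutions in stimulation buffer; IP-1 accumulation read by HTRF (665/620 nm) after 60 min detection. EC50 from four-parameter fit; % effect versus a 1 uM reference agonist.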

| Emax [%] | Compound |
| --- | --- |
| 74.4 | COC(=O)N1[C@H](C)C[C@H](NS(=O)(=O)N(C)C)[C@@H]1COC1CCC2(c3ncc(F)cn3)CC2C1 (single isomer, unassigned) [Example 167] |

Same assay, conditions: IPOne assay, CHO cells expressing human OX2R, 2 hours incubation; read-out: hoX2R_IP IC50

| IC50 [nM] | Compound |
| --- | --- |
| 16.9 | CC(C)OC(=O)N1[C@H](C)C[C@H](NS(C)(=O)=O)[C@@H]1COC1CCC2(c3ncc(Cl)cn3)CC2C1 (stereo partly drawn) [Example 154, isopropyl (2R,3S,5R)-2-(((6-(5-chloropyrimidin-2-yl)bicyclo[4.1.0]heptan-3-yl)oxy)methyl)-5-methyl-3-(methylsulfonamido)pyrrolidine-1-carboxylate] |
| 1.8 | COC(=O)N1[C@@H]2CCC[C@@H]2[C@H](NS(=O)(=O)C2CC2)[C@@H]1COC1CCC2(c3ncc(F)cn3)CC2C1 (stereo partly drawn) [Example 128, methyl (2R,3S,3aS,6aR)-3-(cyclopropanesulfonamido)-2-(((6-(5-fluoropyrimidin-2-yl)bicyclo[4.1.0]heptan-3-yl)oxy)methyl)hexahydrocyclopenta[b]pyrrole-1(2H)-carboxylate] |
| 8 | CCC(C)S(=O)(=O)N[C@H]1C[C@@H](C)N(C(=O)OC)[C@H]1CO[C@H]1CC[C@@]2(c3ncc(F)cn3)C[C@H]2C1 (stereo partly drawn) [Example 41, methyl (2R,3S,5R)-2-((((1S,3S,6R)-6-(5-fluoropyrimidin-2-yl)bicyclo[4.1.0]heptan-3-yl)oxy)methyl)-5-methyl-3-((1-methylpropyl)sulfonamido)pyrrolidine-1-carboxylate] |
| 1.3 | C[C@@H]1C[C@H](NS(C)(=O)=O)[C@H](CO[C@H]2CC[C@@]3(c4ncc(F)cn4)C[C@H]3C2)N1C(=O)OC[C@H]1C[C@H]1F [Example 51, ((1R,2R)-2-fluorocyclopropyl)methyl (2R,3S,5R)-2-((((1S,3S,6R)-6-(5-fluoropyrimidin-2-yl)bicyclo[4.1.0]heptan-3-yl)oxy)methyl)-5-methyl-3-(methylsulfonamido)pyrrolidine-1-carboxylate] |
| 83.7 | COC(=O)N1[C@@H]2COC[C@@H]2C(NS(C)(=O)=O)[C@@H]1COC1CCC2(c3ncc(F)cn3)CC2C1 (mixture of isomers) [Example 134, methyl (2R,3aS,6aS)-2-(((6-(5-fluoropyrimidin-2-yl)bicyclo[4.1.0]heptan-3-yl)oxy)methyl)-3-(methylsulfonamido)hexahydro-1H-furo[3,4-b]pyrrole-1-carboxylate] |
| 4.1 | CC(C)OC(=O)N1CCC[C@H](NS(=O)(=O)C(F)(F)F)[C@@H]1COC1CC[C@@]2(c3ncc(F)cn3)CC2C1 (stereo partly drawn) [Example 123, isopropyl (2R,3S)-2-(((6-(5-fluoropyrimidin-2-yl)bicyclo[4.1.0]heptan-3-yl)oxy)methyl)-3-((trifluoromethyl)sulfonamido)piperidine-1-carboxylate] |
| 79.4 | COC(=O)N1[C@H](C)C[C@H](NS(C)(=O)=O)[C@@H]1COC1CCC2(c3ncc(C)cn3)CC2C1 (stereo partly drawn) [Example 159, methyl (2R,3S,5R)-5-methyl-2-(((6-(5-methylpyrimidin-2-yl)bicyclo[4.1.0]heptan-3-yl)oxy)methyl)-3-(methylsulfonamido)pyrrolidine-1-carboxylate] |
| 7.5 | CC(C)OC(=O)N1[C@H](C)C[C@H](NS(=O)(=O)N(C)C)[C@@H]1COC1CCC2(c3ncccn3)CC2C1 (stereo partly drawn) [Example 174, isopropyl (2R,3S,5R)-3-((N,N-dimethylsulfamoyl)amino)-5-methyl-2-(((6-(pyrimidin-2-yl)bicyclo[4.1.0]heptan-3-yl)oxy)methyl)pyrrolidine-1-carboxylate] |
| 20.4 | COC(=O)N1[C@H](C)C[C@H](NS(=O)(=O)C(F)F)[C@@H]1CO[C@@H]1CC[C@]2(c3ncccn3)C[C@@H]2C1 (single isomer, unassigned) [Example 69] |
| 2.3 | C[C@@H]1C[C@H](NS(C)(=O)=O)[C@H](CO[C@H]2CC[C@@]3(c4ncc(F)cn4)C[C@H]3C2)N1C(=O)OCC1(F)CC1 [Example 61, (1-fluorocyclopropyl)methyl (2R,3S,5R)-2-((((1S,3S,6R)-6-(5-fluoropyrimidin-2-yl)bicyclo[4.1.0]heptan-3-yl)oxy)methyl)-5-methyl-3-(methylsulfonamido)pyrrolidine-1-carboxylate] |
| 22.6 | COC(=O)N1[C@@H]2CCC[C@@H]2[C@H](NS(C)(=O)=O)[C@@H]1COC1CCC2(c3ncccn3)CC2C1 (stereo partly drawn) [Example 175, methyl (2R,3S,3aS,6aR)-3-(methylsulfonamido)-2-(((6-(pyrimidin-2-yl)bicyclo[4.1.0]heptan-3-yl)oxy)methyl)hexahydrocyclopenta[b]pyrrole-1(2H)-carboxylate] |
| 10.8 | CC(C)OC(=O)N1[C@H](C)C[C@H](NS(=O)(=O)C(F)F)[C@@H]1COC1CCC2(c3ncc(Cl)cn3)CC2C1 (stereo partly drawn) [Example 82, isopropyl (2R,3S,5R)-2-(((6-(5-chloropyrimidin-2-yl)bicyclo[4.1.0]heptan-3-yl)oxy)methyl)-3-((difluoromethyl)sulfonamido)-5-methylpyrrolidine-1-carboxylate] |
| 0.9 | COC(=O)N1[C@H](C)C[C@H](NS(=O)(=O)C(C)C)[C@@H]1CO[C@H]1CC[C@@]2(c3ncc(F)cn3)C[C@H]2C1 [Example 38, methyl (2R,3S,5R)-2-((((1S,3S,6R)-6-(5-fluoropyrimidin-2-yl)bicyclo[4.1.0]heptan-3-yl)oxy)methyl)-5-methyl-3-((1-methylethyl)sulfonamido)pyrrolidine-1-carboxylate] |
| 5.4 | CCCS(=O)(=O)N[C@H]1C[C@@H](C)N(C(=O)OC)[C@H]1CO[C@H]1CC[C@@]2(c3ncc(F)cn3)C[C@H]2C1 [Example 33, methyl (2R,3S,5R)-2-((((1S,3S,6R)-6-(5-fluoropyrimidin-2-yl)bicyclo[4.1.0]heptan-3-yl)oxy)methyl)-5-methyl-3-(propylsulfonamido)pyrrolidine-1-carboxylate] |
| 575 | COC(=O)N1[C@H](C)C[C@H](NS(=O)(=O)N(C)C)[C@@H]1COC1CCC2(c3ncc(F)cn3)CC2C1 (single isomer, unassigned) [Example 167] |
| 278 | COC(=O)N1[C@H](C)C[C@H](NS(=O)(=O)N(C)C)[C@@H]1COC1CCC2(c3ccc(C#N)cc3)CC2C1 (stereo partly drawn) [Example 5, methyl (2R,3S,5R)-2-(((6-(4-cyanophenyl)bicyclo[4.1.0]heptan-3-yl)oxy)methyl)-3-((N,N-dimethylsulfamoyl)amino)-5-methylpyrrolidine-1-carboxylate] |
| 1.2 | CCS(=O)(=O)N[C@H]1C[C@@H](C(F)F)N(C(=O)OC)[C@H]1COC1CCC2(c3ncc(F)cn3)CC2C1 (stereo partly drawn) [Example 117, methyl (2R,3S,5S)-5-(difluoromethyl)-3-(ethylsulfonamido)-2-(((6-(5-fluoropyrimidin-2-yl)bicyclo[4.1.0]heptan-3-yl)oxy)methyl)pyrrolidine-1-carboxylate] |
| 4.5 | CC(C)OC(=O)N1[C@H](C)C[C@H](NS(=O)(=O)CF)[C@@H]1COC1CCC2(c3ncc(Cl)cn3)CC2C1 (stereo partly drawn) [Example 107, isopropyl (2R,3S,5R)-2-(((6-(5-chloropyrimidin-2-yl)bicyclo[4.1.0]heptan-3-yl)oxy)methyl)-3-((fluoromethyl)sulfonamido)-5-methylpyrrolidine-1-carboxylate] |
| 4.4 | COC(=O)N1[C@H](C)C[C@H](NS(=O)(=O)C2COC2)[C@@H]1CO[C@H]1CC[C@@]2(c3ncc(F)cn3)C[C@H]2C1 [Example 40, methyl (2R,3S,5R)-2-((((1S,3S,6R)-6-(5-fluoropyrimidin-2-yl)bicyclo[4.1.0]heptan-3-yl)oxy)methyl)-5-methyl-3-(oxetane-3-sulfonamido)pyrrolidine-1-carboxylate] |
| 3.5 | CC(C)OC(=O)N1[C@H](C)C[C@H](NS(=O)(=O)C(F)F)[C@@H]1COC1CCC2(c3ncc(F)cn3)CC2C1 (stereo partly drawn) [Example 109, isopropyl (2R,3S,5R)-3-((difluoromethyl)sulfonamido)-2-(((6-(5-fluoropyrimidin-2-yl)bicyclo[4.1.0]heptan-3-yl)oxy)methyl)-5-methylpyrrolidine-1-carboxylate] |
| 187 | COC(=O)N1[C@H](C)C[C@H](NS(=O)(=O)N(C)C)[C@@H]1COC1CCC2(c3cccc(F)c3)CC2C1 (mixture of isomers) [Example 3, methyl (2R,3S,5R)-3-((N,N-dimethylsulfamoyl)amino)-2-(((6-(3-fluorophenyl)bicyclo[4.1.0]heptan-3-yl)oxy)methyl)-5-methylpyrrolidine-1-carboxylate] |
| 2.8 | COC(=O)N1[C@H](C)C[C@H](NS(C)(=O)=O)[C@@H]1CO[C@H]1CC[C@@]2(c3ncc(Cl)cn3)C[C@H]2C1 (single isomer, unassigned) [Example 142] |
| 2.1 | COC(=O)N1[C@H](C)C[C@H](NS(=O)(=O)CCl)[C@@H]1CO[C@H]1CC[C@@]2(c3ncc(F)cn3)C[C@H]2C1 [Example 37, methyl (2R,3S,5R)-3-((chloromethyl)sulfonamido)-2-((((1S,3S,6R)-6-(5-fluoropyrimidin-2-yl)bicyclo[4.1.0]heptan-3-yl)oxy)methyl)-5-methylpyrrolidine-1-carboxylate] |
| 6.1 | C[C@@H]1C[C@H](NS(C)(=O)=O)[C@H](CO[C@H]2CC[C@@]3(c4ncc(F)cn4)C[C@H]3C2)N1C(=O)OCC1(F)CCC1 [Example 53, (1-fluorocyclobutyl)methyl (2R,3S,5R)-2-((((1S,3S,6R)-6-(5-fluoropyrimidin-2-yl)bicyclo[4.1.0]heptan-3-yl)oxy)methyl)-5-methyl-3-(methylsulfonamido)pyrrolidine-1-carboxylate] |

— patent publication US20230365533A1, “BICYCLOHEPTANE PYRROLIDINE OREXIN RECEPTOR AGONISTS” (MERCK SHARP & DOHME CORP., priority 2021, published 2023)
